Reference: patent US20080226596A1, “Therapeutic compositions and methods useful in treating hepatitis” (priority 2006, published 2008)
“Also recorded” adds a separate entry of the source.

Assays:
PRL-3 = molecular target: T1, PRL-3 (Homo sapiens, UniProt O75365); experiment: In vitro PTPase assay, recombinant PRL-3; type: biochemical; conditions: 10 μg/ml, pre-incubation 30 or 60 minutes
T1 construct: GST (N); made in house; host or cells: DHSa (DH5a) bacteria
Excerpt: Sodium stibogluconate, suramin, sodium orthovanadate and GST fusion protein of SHP-1 have been described previously (Pathak et al., J. Imumol. 167, 3391 (2001)). Meglumine antimonate was obtained from Aventis. cDNAs of human PRL-1, PRL-2 and PRL-3 coding region were derived by RT-PCR from H9 cells (Safai, et al., Lancet 1, 1438 (1984)) and inserted in frame into the pGEX vector. cDNA of PRL-1R86 was generated by recombinant DNA technique using PRL-1 cDNA as template following established procedures (Jiao, et al., Mol. Cell. Biol. 16, 6985 (1996)). […]
In vitro PTPase assays were used to determine the effects of compounds on recombinant PTPases, following established procedures using a synthetic phosphotyrosine peptide or DiFMUP as the substrate (Pathak et al., J. Imumol. 167, 3391 (2001)). […] PTPase activity of individual reactions was measured by adding 100 µL of malachite green solution (UBI) and then quantifying the amounts of free phosphate cleaved by the PTPase from the peptide substrate by spectrometry (OD660 nm). […] Relative PTPase activities were calculated based on the formula: (PTPase activity in the presence of an inhibitory compound/PTPase activity in the absence of the compound)× 100%. […]

SK-N-SH cells = experiment: SK-N-SH neuroblastoma cell growth, MTT assay; type: cell-based, human; conditions: 100 μg/ml, day 6
Description: NIH3T3 (Yi, et al., Blood 85, 87 (1995)), WM9 (Forsberg, et al., Proc. Nat. Acad Sci. USA 90, 393 (1993)), DU145 (Mickey, et al., Cancer Res. 37, 4049 (1977)), LoVo (Drewinko, et al., Cancer Res. 36, 467 (1976)), HEY (Buick, et al., Cancer Res. 45, 3668 (1985)), U251 (Yoshida, et al., Cancer 50, 410 (1982)), A549 (Giard, et al., J. Natl. Cancer Inst. 51, 1417 (1973)) and SK-N-SH (Helson, et al., Cancer Res. 35, 2594 (1975)) cell lines have been described and were cultured in RPMI 1640 supplemented with 10% fetal calf serum (FCS). For measurement of sodium stibogluconate effects on cell growth in vitro, cells were cultured in the absence (−) or presence (+) of various amounts of sodium stibogluconate for 6 days with viable cells quantified by MTT assays (Mosmann, J. Immunol. Methods 65, 55 (1983)). Percentages of growth inhibition by sodium stibogluconate were calculated (.+−.x

SHP-1 = molecular target: T2, SHP-1 (Mus musculus, UniProt P29351); experiment: Reversibility of SHP-1 inhibition (washing of bead-bound GST/SHP-1); type: biochemical; conditions: pre-incubated 4° C. 30 minutes, washed 3 times
T2 construct: made in house
T2 sequence (P29351 whole entry): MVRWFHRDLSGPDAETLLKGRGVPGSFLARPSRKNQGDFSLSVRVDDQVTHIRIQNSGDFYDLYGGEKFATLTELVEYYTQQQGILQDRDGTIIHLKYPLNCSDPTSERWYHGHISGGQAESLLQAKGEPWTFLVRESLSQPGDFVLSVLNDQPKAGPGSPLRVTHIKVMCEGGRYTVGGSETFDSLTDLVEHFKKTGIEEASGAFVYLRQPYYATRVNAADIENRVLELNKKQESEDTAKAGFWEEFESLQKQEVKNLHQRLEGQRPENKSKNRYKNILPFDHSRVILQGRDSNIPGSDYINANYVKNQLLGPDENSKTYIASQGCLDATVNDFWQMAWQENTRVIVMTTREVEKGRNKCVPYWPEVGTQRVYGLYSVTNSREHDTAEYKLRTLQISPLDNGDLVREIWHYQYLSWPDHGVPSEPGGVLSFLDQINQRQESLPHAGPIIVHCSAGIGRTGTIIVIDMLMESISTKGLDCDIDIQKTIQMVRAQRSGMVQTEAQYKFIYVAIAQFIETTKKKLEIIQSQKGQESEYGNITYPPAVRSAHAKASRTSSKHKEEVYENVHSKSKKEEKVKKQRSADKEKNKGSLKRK
Excerpt: The beads were then either subjected to in vitro PTPase assays or washed 3 times in Tris buffer then subjected to in vitro PTPase assays.

DS cells = experiment: DS lymphoma cell growth, MTT assay; type: cell-based, human; conditions: day 3; IFN-alpha 1,000 u/ml
Description: (§1) For cell proliferation assays, cells were grown in 10% FCS culture medium containing various amounts of IFNs and/or sodium stibogluconate in 96 well plates and cultured at 37° C. for 3 or 6 days as indicated. The numbers of viable cells in proliferation assays were determined by MTT assays as described in Phatak et al., J. Immunol. 167, 3391 (2001).

WiT49-N1 cells = experiment: WiT49-N1 Wilms tumor cell growth, MTT assay; type: cell-based, human; conditions: single agent, day 6; killing at 100 μg/ml
Description: as §1

C42 cells = experiment: C42 prostate cancer cell growth; type: cell-based, human
Description: as §1

NB4 cells = experiment: NB4 differentiation, NBT reduction; type: cell-based, human
Description: Differentiation of AML cell lines was assessed by their ability to produce superoxide as measured by reduction of NBT to formazan and by analysis of expression of CD11b surface marker by flow cytometry. For NBT reduction, each cell suspension was mixed with an equal volume of solution containing 1 mg/ml of NBT (Sigma) and 2.5 µg/ml of TPA for 30 minutes at 37° C. After incubation, cells containing the purple formazan deposits and cells devoid of NBT-reducing activity (white cells) in each sample were determined by counting 200 cells under microscope. Data is expressed as a percentage based on the following ratio: purple cells/purple+white cells. For analysis of cell surface antigens, cells were exposed to phycoerythrin (PE)-conjugated murine anti-human CD11b (DAKO Corp., Carpinteria, Calif.). Analysis of fluorescence was performed on a FACScan flow cytometer (Beckton Dickinson, Mountain View, Calif.).

T1 sequence (O75365 whole entry): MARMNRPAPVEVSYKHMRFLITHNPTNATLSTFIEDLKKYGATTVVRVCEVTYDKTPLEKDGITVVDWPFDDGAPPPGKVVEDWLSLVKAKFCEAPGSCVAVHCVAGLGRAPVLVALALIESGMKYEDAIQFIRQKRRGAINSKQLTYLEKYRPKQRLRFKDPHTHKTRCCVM

SMILES: O.O.O.O.O.O.O.O.O.O=C([O-])[C@@H]1[O][Sb]2([O-])([O][Sb]34([OH])[O][C@H]([C@H](O)CO)[C@H]([O]3)[C@H](C(=O)[O-])[O]4)[O][C@H]([C@H](O)CO)[C@@H]1[O]2.[Na+].[Na+].[Na+] [sodium stibogluconate]
- inactivation of PRL-3 (PRL-3): nearly complete inactivation
- killing of SK-N-SH cells (SK-N-SH cells): near-complete cell killing
- inhibition of GST/SHP-1 after washing (SHP-1): not affected by washing
- activity against DS cells (DS cells): modest activity
- sensitivity/killing of WiT49-N1 cells (WiT49-N1 cells): sensitive; also recorded: complete or near complete killing
- effect on C42 cells (C42 cells): highly resistant
- NB4 differentiation induction (NB4 cells; 10 to 400 μg/ml, day 3 or day 6): differentiation induction activity at all of the dosages
- reversal of NB4 differentiation after drug removal (NB4 cells; 6 days with drug (10 or 100 μg/ml), washed, 6 days without): not reversed
